ChEMBL document CHEMBL1132062, “A new class of potent RAR antagonists: dihydroanthracenyl, benzochromenyl and benzothiochromenyl retinoids” (Bioorg Med Chem Lett, 1999)

Species on record: Mus musculus
Experiment: Compound was tested for abrasion score in mice at a dose of 3.6 nmol/25 g
Assay type: functional

SMILES	Abrasion score
C/C(=C\c1ccc(C(=O)O)cc1)c1ccc2c(c1)C(C)(C)CCC2(C)C	2

Species on record: Mus musculus
Experiment: Compound was tested for abrasion score in mice at a dose of 3.6 nmol/25 g of TTNPB and 28.8 nmol/25 g of the compound
Assay type: functional

SMILES	Abrasion score
C/C(=C\c1ccc(C(=O)O)cc1)c1ccc2c(c1)C(C)(C)CCC2(C)C.Cc1ccc(C2=CC(C)(C)Oc3cc4ccc(-c5ccc(C(=O)O)cc5)cc4cc32)s1	1
C/C(=C\c1ccc(C(=O)O)cc1)c1ccc2c(c1)C(C)(C)CCC2(C)C.Cc1ccc(C2=CCC(C)(C)c3cc4ccc(-c5ccc(C(=O)O)cc5)cc4cc32)cc1	0

Species on record: Mus musculus
Experiment: Compound was tested for abrasion score in mice at a dose of 3.6 nmol/25 g of TTNPB and 7.2 nmol/25 g of the compound
Assay type: functional

SMILES	Abrasion score
C/C(=C\c1ccc(C(=O)O)cc1)c1ccc2c(c1)C(C)(C)CCC2(C)C.Cc1ccc(C2=CC(C)(C)Oc3cc4ccc(-c5ccc(C(=O)O)cc5)cc4cc32)s1	3
C/C(=C\c1ccc(C(=O)O)cc1)c1ccc2c(c1)C(C)(C)CCC2(C)C.Cc1ccc(C2=CCC(C)(C)c3cc4ccc(-c5ccc(C(=O)O)cc5)cc4cc32)cc1	1

Species on record: Mus musculus
Experiment: Compound was tested for flaking score in mice at a dose of 3.6 nmol/25 g of TTNPB and 7.2 nmol/25 g of the compound
Assay type: functional

SMILES	Flaking score
C/C(=C\c1ccc(C(=O)O)cc1)c1ccc2c(c1)C(C)(C)CCC2(C)C.Cc1ccc(C2=CC(C)(C)Oc3cc4ccc(-c5ccc(C(=O)O)cc5)cc4cc32)s1	2
C/C(=C\c1ccc(C(=O)O)cc1)c1ccc2c(c1)C(C)(C)CCC2(C)C.Cc1ccc(C2=CCC(C)(C)c3cc4ccc(-c5ccc(C(=O)O)cc5)cc4cc32)cc1	1

Species on record: Mus musculus
Experiment: Compound was tested for its effect on body weight gain in mice at a dose of 3.6 nmol/25 g of TTNPB and 28.8 nmol/25 g of the compound
Assay type: functional

SMILES	Gain [%]
C/C(=C\c1ccc(C(=O)O)cc1)c1ccc2c(c1)C(C)(C)CCC2(C)C.Cc1ccc(C2=CC(C)(C)Oc3cc4ccc(-c5ccc(C(=O)O)cc5)cc4cc32)s1	1
C/C(=C\c1ccc(C(=O)O)cc1)c1ccc2c(c1)C(C)(C)CCC2(C)C.Cc1ccc(C2=CCC(C)(C)c3cc4ccc(-c5ccc(C(=O)O)cc5)cc4cc32)cc1	5

Species on record: Mus musculus
Experiment: Compound was tested for its effect on body weight gain in mice at a dose of 3.6 nmol/25 g of TTNPB and 7.2 nmol/25 g of the compound
Assay type: functional

SMILES	Gain [%]
C/C(=C\c1ccc(C(=O)O)cc1)c1ccc2c(c1)C(C)(C)CCC2(C)C.Cc1ccc(C2=CC(C)(C)Oc3cc4ccc(-c5ccc(C(=O)O)cc5)cc4cc32)s1	6
C/C(=C\c1ccc(C(=O)O)cc1)c1ccc2c(c1)C(C)(C)CCC2(C)C.Cc1ccc(C2=CCC(C)(C)c3cc4ccc(-c5ccc(C(=O)O)cc5)cc4cc32)cc1	2

Species on record: Mus musculus
Experiment: Compound was tested for flaking score in mice at a dose of 3.6 nmol/25 g
Assay type: functional

SMILES	Flaking score
C/C(=C\c1ccc(C(=O)O)cc1)c1ccc2c(c1)C(C)(C)CCC2(C)C	3

Species on record: Mus musculus
Experiment: Compound was tested for its effect on body weight gain in mice at a dose of 3.6 nmol/25 g
Assay type: functional

SMILES	Gain [%]
C/C(=C\c1ccc(C(=O)O)cc1)c1ccc2c(c1)C(C)(C)CCC2(C)C	6

Species on record: Mus musculus
Experiment: Compound was tested for cutaneous toxicity score in mice at a dose of 3.6 nmol/25 g
Assay type: functional

SMILES	Cutaneous toxicology score
C/C(=C\c1ccc(C(=O)O)cc1)c1ccc2c(c1)C(C)(C)CCC2(C)C	11

Species on record: Mus musculus
Experiment: Compound was tested for cutaneous toxicity score in mice at a dose of 3.6 nmol/25 g of TTNPB and 28.8 nmol/25 g of the compound
Assay type: functional

SMILES	Cutaneous toxicology score
C/C(=C\c1ccc(C(=O)O)cc1)c1ccc2c(c1)C(C)(C)CCC2(C)C.Cc1ccc(C2=CC(C)(C)Oc3cc4ccc(-c5ccc(C(=O)O)cc5)cc4cc32)s1	3
C/C(=C\c1ccc(C(=O)O)cc1)c1ccc2c(c1)C(C)(C)CCC2(C)C.Cc1ccc(C2=CCC(C)(C)c3cc4ccc(-c5ccc(C(=O)O)cc5)cc4cc32)cc1	1.1

Species on record: Mus musculus
Experiment: Compound was tested for cutaneous toxicity score in mice at a dose of 3.6 nmol/25 g of TTNPB and 7.2 nmol/25 g of the compound
Assay type: functional

SMILES	Cutaneous toxicology score
C/C(=C\c1ccc(C(=O)O)cc1)c1ccc2c(c1)C(C)(C)CCC2(C)C.Cc1ccc(C2=CC(C)(C)Oc3cc4ccc(-c5ccc(C(=O)O)cc5)cc4cc32)s1	4.6
C/C(=C\c1ccc(C(=O)O)cc1)c1ccc2c(c1)C(C)(C)CCC2(C)C.Cc1ccc(C2=CCC(C)(C)c3cc4ccc(-c5ccc(C(=O)O)cc5)cc4cc32)cc1	2

Species on record: Mus musculus
Experiment: Compound was tested for flaking score in mice at a dose of 3.6 nmol/25 g of TTNPB and 28.8 nmol/25 g of the compound
Assay type: functional

SMILES	Flaking score
C/C(=C\c1ccc(C(=O)O)cc1)c1ccc2c(c1)C(C)(C)CCC2(C)C.Cc1ccc(C2=CC(C)(C)Oc3cc4ccc(-c5ccc(C(=O)O)cc5)cc4cc32)s1	2
C/C(=C\c1ccc(C(=O)O)cc1)c1ccc2c(c1)C(C)(C)CCC2(C)C.Cc1ccc(C2=CCC(C)(C)c3cc4ccc(-c5ccc(C(=O)O)cc5)cc4cc32)cc1	1
